In the supplement of paper PMC11061612:

Key:
Assay in all cases: combination Emax (second highest fraction inhibited in the dose matrix, 72 h); higher = more inhibition; extreme values may be limits of the assay
[1] = test system: JHU-022 (Oral Cavity Carcinoma)
Outline: (§1)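 Bliss excess equals the observed combination effect minus the expected value EA + EB − EA·EB, where EA and EB are the effects of each agent alone. Combination Emax is the second-highest inhibition within the matrix. Inhibition was scaled from CellTiter-Glo 2.0 luminescence, with 0 set by vehicle wells and 1 by blank wells, after 72 hours of two-drug dosing of cells plated in 1536-well plates.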

[2] = test system: EW-7 (Ewing's Sarcoma)
Outline: as §1

[3] = test system: CGTH-W-1 (Thyroid Gland Carcinoma)
Outline: as §1

[4] = test system: NB13 (Neuroblastoma)
Outline: as §1

[5] = test system: MDA-MB-436 (Breast Carcinoma)
Outline: as §1

[6] = test system: UACC-812 (Breast Carcinoma)
Outline: as §1

[7] = test system: NCI-H1703 (Squamous Cell Lung Carcinoma)
Outline: as §1

[8] = test system: HCC70 (Breast Carcinoma)
Outline: as §1

[9] = test system: SW620 (Colorectal Carcinoma)
Outline: as §1

[10] = test system: NCI-H1651 (Lung Adenocarcinoma)
Outline: as §1

[11] = test system: SK-HEP-1 (Hepatocellular Carcinoma)
Outline: as §1

Compound | combination Emax [1] | combination Emax [2] | combination Emax [3] | combination Emax [4] | combination Emax [5] | combination Emax [6] | combination Emax [7] | combination Emax [8] | combination Emax [9] | combination Emax [10] | combination Emax [11]
C=CCn1c(=O)c2cnc(Nc3ccc(N4CCN(C)CC4)cc3)nc2n1-c1cccc(C(C)(C)O)n1 [AZD1775] + CCc1c2c(nc3ccc(O)cc13)-c1cc3c(c(=O)n1C2)COC(=O)[C@]3(O)CC [SN-38] (first compound max 1 µM, partner max 0.3 µM) | 0.783 | 0.966 | 0.703 | 0.853 | 0.591 | 0.513 | 0.992 | 0.537 | 0.949 | 0.86 | 0.622
C=CCn1c(=O)c2cnc(Nc3ccc(N4CCN(C)CC4)cc3)nc2n1-c1cccc(C(C)(C)O)n1 [AZD1775] + Nc1ccn([C@@H]2O[C@H](CO)[C@@H](O)C2(F)F)c(=O)n1 [Gemcitabine] (first compound max 1 µM, partner max 0.3 µM) | 0.617 | 1 | 0.761 |  | 0.608 | 0.626 | 0.984 | 0.513 | 0.9 | 0.762 | 0.514
CN(CCO)CC[C@H](CSc1ccccc1)Nc1ccc(S(=O)(=O)NC(=O)c2ccc(N3CCC([C@@H](O)c4ccccc4-c4ccc(Cl)cc4)CC3)cc2)cc1S(=O)(=O)C(F)(F)F [AZD4320] + CS(=O)(=O)CCNCc1ccc(-c2ccc3ncnc(Nc4ccc(OCc5cccc(F)c5)c(Cl)c4)c3c2)o1 [Lapatinib] (first compound max 1 µM, 7x7, partner max 10 µM) | 0.784 | 0.979 | 0.273 | 0.989 | 0.256 | 0.616 | 0.862 | 0.93 | 0.741 | 0.396 | 0.909
Cc1c2c(nn1C)CSCc1cc(n(C)n1)CSc1cc(c3ccccc3c1)OCCCc1c(C(=O)O)n(C)c3c-2c(Cl)ccc13 [AZD5991] + CC(=O)O[C@H]1C(=O)[C@@]2(C)[C@H]([C@H](OC(=O)c3ccccc3)[C@]3(O)C[C@H](OC(=O)[C@H](O)[C@@H](NC(=O)c4ccccc4)c4ccccc4)C(C)=C1C3(C)C)[C@]1(OC(C)=O)CO[C@@H]1C[C@@H]2O [Paclitaxel] (first compound max 1 µM, 7x7, partner max 3 µM) | 0.371 | 0.984 | 0.59 |  | 0.391 | 0.794 | 0.993 | 0.973 | 0.788 | 0.912 | 0.857
Cc1c2c(nn1C)CSCc1cc(n(C)n1)CSc1cc(c3ccccc3c1)OCCCc1c(C(=O)O)n(C)c3c-2c(Cl)ccc13 [AZD5991] + CS(=O)(=O)CCNCc1ccc(-c2ccc3ncnc(Nc4ccc(OCc5cccc(F)c5)c(Cl)c4)c3c2)o1 [Lapatinib] (first compound max 1 µM, 7x7, partner max 10 µM) | 0.705 | 0.666 | 0.221 | 0.527 | 0.274 | 0.929 | 0.935 | 0.995 | 0.207 | 0.307 | 0.632
Cc1c2c(nn1C)CSCc1cc(n(C)n1)CSc1cc(c3ccccc3c1)OCCCc1c(C(=O)O)n(C)c3c-2c(Cl)ccc13 [AZD5991] + Nc1ccn([C@@H]2O[C@H](CO)[C@@H](O)C2(F)F)c(=O)n1 [Gemcitabine] (first compound max 1 µM, 7x7, partner max 0.3 µM) | 0.659 | 1 | 0.688 |  | 0.56 | 0.755 | 0.954 | 0.937 | 0.657 | 0.486 | 0.535
C[C@@H]1COCCN1c1cc(C2([S@](C)(=N)=O)CC2)nc(-c2ccnc3[nH]ccc23)n1 [AZD6738] + C1CC(C1)(C(=O)[O-])C(=O)[O-].N.N.[Pt+2] [Carboplatin] (first compound max 10 µM, 7x7, partner max 10 µM) | 0.513 | 0.936 | 0.302 | 0.81 | 0.266 | 0.381 | 0.932 | 0.763 | 0.478 | 0.641 | 0.166
C[C@@H]1COCCN1c1cc(C2([S@](C)(=N)=O)CC2)nc(-c2ccnc3[nH]ccc23)n1 [AZD6738] + Nc1ccn([C@@H]2O[C@H](CO)[C@@H](O)C2(F)F)c(=O)n1 [Gemcitabine] (first compound max 10 µM, 7x7, partner max 0.3 µM) | 0.695 | 1 | 0.947 |  | 0.621 | 0.66 | 0.954 | 0.826 | 0.895 | 0.747 | 0.645
C[C@@H](Nc1cc(F)cc(F)c1)c1cc(C(=O)N(C)C)cc2c(=O)cc(N3CCOCC3)oc12 [AZD8186] + C1CN(CCC1(C(=O)N[C@@H](CCO)C2=CC=C(C=C2)Cl)N)C3=NC=NC4=C3C=CN4 [AZD5363] (first compound max 10 µM, 7x7, partner max 10 µM) | 0.494 | 0.678 | 0.316 |  | 0.449 | 0.333 | 0.635 | 0.732 | 0.24 | 0.112 | 0.159
C[C@@H](Nc1cc(F)cc(F)c1)c1cc(C(=O)N(C)C)cc2c(=O)cc(N3CCOCC3)oc12 [AZD8186] + CC(=O)c1c(C)c2cnc(Nc3ccc(N4CCNCC4)cn3)nc2n(C2CCCC2)c1=O [Palbociclib] (first compound max 10 µM, 7x7, partner max 10 µM) | 0.512 | 0.509 | 0.311 |  | 0.472 | 0.389 | 0.643 | 0.575 | 0.481 | 0.17 | 0.578
C[C@@H](Oc1cc(-c2cnn(C3CCNCC3)c2)cnc1N)c1c(Cl)ccc(F)c1Cl [Crizotinib] + CC1=C(C(=CC=C1)Cl)NC(=O)C2=CN=C(S2)NC3=CC(=NC(=N3)C)N4CCN(CC4)CCO [Dasatinib] (first compound max 10 µM, 7x7, partner max 2 µM) | 0.648 | 0.945 | 0.961 | 0.801 | 0.3 | 0.181 | 0.799 | 0.117 | 0.867 | 0.29 | 0.433
C[C@@H](Oc1cc(-c2cnn(C3CCNCC3)c2)cnc1N)c1c(Cl)ccc(F)c1Cl [Crizotinib] + Cn1cnc2c(F)c(Nc3ccc(Br)cc3Cl)c(C(=O)NOCCO)cc21 [Selumetinib] (first compound max 10 µM, 7x7, partner max 10 µM) | 0.496 | 0.929 | 0.213 | 0.804 | 0.292 | 0.154 | 0.535 | 0.448 | 0.861 | 0.0815 | 0.387
CS(=O)(=O)CCNCc1ccc(-c2ccc3ncnc(Nc4ccc(OCc5cccc(F)c5)c(Cl)c4)c3c2)o1 [Lapatinib] + Cn1cnc2c(F)c(Nc3ccc(Br)cc3Cl)c(C(=O)NOCCO)cc21 [Selumetinib] (first compound max 10 µM, 7x7, partner max 10 µM) | 0.702 | 0.731 | 0.245 | 0.521 | 0.352 | 0.5 | 0.482 | 0.891 | 0.656 | 0.151 | 0.133
O=C(c1cc(Cc2n[nH]c(=O)c3ccccc23)ccc1F)N1CCN(C(=O)C2CC2)CC1 [Olaparib] + CC1(C)CCC(CN2CCN(c3ccc(C(=O)NS(=O)(=O)c4ccc(NCC5CCOCC5)c([N+](=O)[O-])c4)c(Oc4cnc5[nH]ccc5c4)c3)CC2)=C(c2ccc(Cl)cc2)C1 [Venetoclax] (first compound max 10 µM, 7x7, partner max 1 µM) | 0.174 | 0.786 | 0.053 |  | 0.277 | 0.243 | 0.18 | 0.141 | 0.182 | 0.235 | 0.73
O=C(c1cc(Cc2n[nH]c(=O)c3ccccc23)ccc1F)N1CCN(C(=O)C2CC2)CC1 [Olaparib] + CN(CC[C@H](CSC1=CC=CC=C1)NC2=C(C=C(C=C2)S(=O)(=O)NC(=O)C3=CC=C(C=C3)N4CCC(CC4)[C@H](C5=CC=CC=C5C6=CC=C(C=C6)Cl)O)S(=O)(=O)C(F)(F)F)CCO [AZD4320] (first compound max 10 µM, 7x7, partner max 1 µM) | 0.163 | 0.944 | 0.0708 |  | 0.308 | 0.251 | 0.19 | 0.253 | 0.329 | 0.299 | 0.911
O=C(c1cc(Cc2n[nH]c(=O)c3ccccc23)ccc1F)N1CCN(C(=O)C2CC2)CC1 [Olaparib] + COc1nnc2ccc(N3CCC(c4ccc(OCCN5CCN(C)C(=O)[C@H]5C)cc4)CC3)nn12 [AZD5153] (first compound max 10 µM, 7x7, partner max 1 µM) | 0.35 | 0.746 | 0.218 |  | 0.316 | 0.376 | 0.571 | 0.281 | 0.447 | 0.367 | 0.752
O=C(c1cc(Cc2n[nH]c(=O)c3ccccc23)ccc1F)N1CCN(C(=O)C2CC2)CC1 [Olaparib] + Cc1c2c(nn1C)CSCc1cc(n(C)n1)CSc1cc(c3ccccc3c1)OCCCc1c(C(=O)O)n(C)c3c-2c(Cl)ccc13 [AZD5991] (first compound max 10 µM, 7x7, partner max 1 µM) | 0.0997 | 0.787 | 0.0485 |  | 0.234 | 0.643 | 0.859 | 0.879 | 0.173 | 0.293 | 0.478
Cc1nc(-c2cn3c(n2)-c2ccc(-c4cnn(C(C)(C)C(N)=O)c4)cc2OCC3)n(C(C)C)n1 [Taselisib] + O=C(Nc1ccc2[nH]nc(-c3ccncc3)c2c1)[C@@H]1CCN(CC(=O)N2CCN(c3ccc(-c4ncccn4)cc3)CC2)C1 [SCH772984] (first compound max 10 µM, 7x7, partner max 5 µM) | 0.769 | 0.999 | 0.977 | 0.424 | 0.469 | 0.428 | 0.722 | 0.943 | 0.764 | 0.24 | 0.389
